Results: paper PMC2758719 (Molecular Systems Biology, 2009)

Target: T1, PfkA (Escherichia coli, UniProt P0A796)
T1 sequence (P0A796 1-320): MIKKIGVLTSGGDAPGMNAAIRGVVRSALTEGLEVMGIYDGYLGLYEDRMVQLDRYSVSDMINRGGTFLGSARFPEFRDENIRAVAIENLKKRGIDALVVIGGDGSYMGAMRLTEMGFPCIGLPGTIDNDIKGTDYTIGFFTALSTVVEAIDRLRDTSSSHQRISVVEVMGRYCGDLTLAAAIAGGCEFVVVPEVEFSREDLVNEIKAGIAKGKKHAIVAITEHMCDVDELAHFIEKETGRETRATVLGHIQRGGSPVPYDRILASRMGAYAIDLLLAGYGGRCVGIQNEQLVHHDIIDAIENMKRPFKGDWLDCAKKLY
Test: CE-MS quantification of metabolites after incubation
Assay type: biochemical
Settings: 5 mM S7P, 2 mM ATP, 2 uM enzyme, 50 mM MOPS potassium buffer, 37 °C, 1 h

O=P(O)(O)OC[C@@H](O)[C@H]1OC(O)(CO)[C@@H](O)[C@@H]1O (stereo partly shown) [S7P]
CE-MS quantification of metabolites after incubation: When S7P and ATP were incubated with PfkA, S7P and ATP were consumed
